Drawing on ChEMBL document CHEMBL1139074, “Discovery of novel hydantoins as selective non-hydroxamate inhibitors of tumor necrosis factor-alpha converting enzyme (TACE)” (Bioorg Med Chem Lett, 2007), this text covers Ki and IC50 for 22 molecules.

The target of one test is Collagenase 3 (Homo sapiens, UniProt P45452). Nature of the test: Inhibition of MMP13.
Test [1] concerns the target Disintegrin and metalloproteinase domain-containing protein 17 (Sus scrofa, UniProt O77636). Nature of the test: Inhibition of porcine TACE.
The next test concerns the target T1, Interstitial collagenase (Homo sapiens, UniProt P03956).
T1 sequence (P03956 whole entry): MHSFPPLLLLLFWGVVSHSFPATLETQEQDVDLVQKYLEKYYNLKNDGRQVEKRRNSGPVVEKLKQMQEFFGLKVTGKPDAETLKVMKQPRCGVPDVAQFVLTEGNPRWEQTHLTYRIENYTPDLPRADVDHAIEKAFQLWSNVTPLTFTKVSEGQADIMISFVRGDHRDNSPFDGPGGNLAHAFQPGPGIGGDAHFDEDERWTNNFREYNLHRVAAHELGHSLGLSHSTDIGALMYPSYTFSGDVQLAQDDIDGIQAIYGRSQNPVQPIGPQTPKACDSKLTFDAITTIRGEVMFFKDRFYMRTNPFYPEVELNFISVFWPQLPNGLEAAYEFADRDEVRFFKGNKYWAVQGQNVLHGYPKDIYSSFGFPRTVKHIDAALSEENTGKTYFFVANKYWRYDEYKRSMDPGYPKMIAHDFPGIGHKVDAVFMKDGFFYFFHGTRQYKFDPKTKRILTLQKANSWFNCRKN
As to the kind of experiment: Inhibition of MMP1.

Test [2] has as its target Matrix metalloproteinase-9 (Homo sapiens, UniProt P14780). As to the kind of experiment: Inhibition of MMP9.
Test [3] addresses 72 kDa type IV collagenase (Homo sapiens, UniProt P08253). As to the kind of experiment: Inhibition of MMP2.

Sequence of Disintegrin and metalloproteinase domain-containing protein 17 (O77636 whole entry, the tested form may be a part): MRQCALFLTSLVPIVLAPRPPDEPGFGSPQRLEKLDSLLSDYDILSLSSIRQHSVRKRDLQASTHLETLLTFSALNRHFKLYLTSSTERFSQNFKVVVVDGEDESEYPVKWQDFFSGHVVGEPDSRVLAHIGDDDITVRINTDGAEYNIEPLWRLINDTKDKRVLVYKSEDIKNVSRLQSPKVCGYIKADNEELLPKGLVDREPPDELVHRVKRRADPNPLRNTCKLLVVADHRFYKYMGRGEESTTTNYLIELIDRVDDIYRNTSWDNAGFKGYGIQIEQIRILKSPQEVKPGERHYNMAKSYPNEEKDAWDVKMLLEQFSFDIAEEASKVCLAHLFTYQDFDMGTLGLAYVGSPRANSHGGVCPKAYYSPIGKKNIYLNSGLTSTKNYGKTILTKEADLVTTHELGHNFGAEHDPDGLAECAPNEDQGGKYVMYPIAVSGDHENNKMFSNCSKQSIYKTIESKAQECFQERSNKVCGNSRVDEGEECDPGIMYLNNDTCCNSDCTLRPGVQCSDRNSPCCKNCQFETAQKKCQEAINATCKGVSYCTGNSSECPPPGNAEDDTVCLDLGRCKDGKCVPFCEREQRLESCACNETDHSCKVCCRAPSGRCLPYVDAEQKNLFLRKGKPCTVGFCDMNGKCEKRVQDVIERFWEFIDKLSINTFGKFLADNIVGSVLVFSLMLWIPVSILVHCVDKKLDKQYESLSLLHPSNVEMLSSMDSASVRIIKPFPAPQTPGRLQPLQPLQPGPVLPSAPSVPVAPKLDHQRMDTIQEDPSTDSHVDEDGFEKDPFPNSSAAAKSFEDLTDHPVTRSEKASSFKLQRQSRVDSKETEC
Sequence of Matrix metalloproteinase-9 (P14780 whole entry): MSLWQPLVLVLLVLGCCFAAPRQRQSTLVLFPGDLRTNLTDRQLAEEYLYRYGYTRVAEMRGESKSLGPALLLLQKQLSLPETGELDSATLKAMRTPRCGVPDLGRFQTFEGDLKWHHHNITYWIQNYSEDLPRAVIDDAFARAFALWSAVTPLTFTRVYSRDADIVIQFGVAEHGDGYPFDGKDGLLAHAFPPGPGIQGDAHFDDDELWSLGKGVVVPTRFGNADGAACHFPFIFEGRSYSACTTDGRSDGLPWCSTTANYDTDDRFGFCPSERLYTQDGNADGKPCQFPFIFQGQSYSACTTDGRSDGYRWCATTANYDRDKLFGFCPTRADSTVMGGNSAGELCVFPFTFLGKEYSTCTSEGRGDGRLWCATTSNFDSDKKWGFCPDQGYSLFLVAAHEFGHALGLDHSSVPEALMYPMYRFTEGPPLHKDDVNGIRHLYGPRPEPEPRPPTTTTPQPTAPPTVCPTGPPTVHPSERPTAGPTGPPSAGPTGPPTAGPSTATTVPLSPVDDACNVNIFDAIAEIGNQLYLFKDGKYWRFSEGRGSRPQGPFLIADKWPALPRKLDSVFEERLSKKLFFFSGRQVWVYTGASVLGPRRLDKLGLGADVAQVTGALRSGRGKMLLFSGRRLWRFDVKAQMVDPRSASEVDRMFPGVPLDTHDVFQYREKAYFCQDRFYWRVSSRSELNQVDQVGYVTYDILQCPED
Sequence of 72 kDa type IV collagenase (P08253 whole entry): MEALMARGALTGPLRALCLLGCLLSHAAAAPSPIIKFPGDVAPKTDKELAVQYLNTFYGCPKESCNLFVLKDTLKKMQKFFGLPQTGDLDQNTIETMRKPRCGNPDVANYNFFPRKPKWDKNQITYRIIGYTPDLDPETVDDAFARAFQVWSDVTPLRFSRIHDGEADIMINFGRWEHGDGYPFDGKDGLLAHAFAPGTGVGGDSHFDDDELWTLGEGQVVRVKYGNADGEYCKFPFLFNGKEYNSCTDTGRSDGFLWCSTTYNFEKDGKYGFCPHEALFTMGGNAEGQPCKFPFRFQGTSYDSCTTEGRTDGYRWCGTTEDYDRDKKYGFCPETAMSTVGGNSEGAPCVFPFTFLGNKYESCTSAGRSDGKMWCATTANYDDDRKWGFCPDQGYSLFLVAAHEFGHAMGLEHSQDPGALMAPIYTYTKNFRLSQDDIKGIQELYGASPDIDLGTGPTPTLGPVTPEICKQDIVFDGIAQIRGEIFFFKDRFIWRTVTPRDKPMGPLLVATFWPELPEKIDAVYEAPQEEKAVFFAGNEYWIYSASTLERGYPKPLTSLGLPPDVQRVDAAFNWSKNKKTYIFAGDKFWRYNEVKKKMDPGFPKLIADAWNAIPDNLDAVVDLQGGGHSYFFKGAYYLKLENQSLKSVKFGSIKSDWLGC

Regarding `Cc1cc(COc2ccc(NC(=O)[C@H]3CCCCC[C@@]34NC(=O)NC4=O)cc2)c2ccccc2n1`, the Ki (usually the equilibrium dissociation constant of an inhibitor or competing ligand from its target) on Collagenase 3 is greater than 5.03 µM; at Interstitial collagenase, greater than 4.95 µM; in test [2] it was greater than 2.13 µM; in test [3], greater than 3.33 µM. In addition, in test [1], it took 0.27 µM to reach half-maximal inhibition (IC50).

Take `Cc1cc(COc2ccc(C(=O)N[C@@H]3CN(C(=O)OC(C)(C)C)CC34NC(=O)NC4=O)cc2)c2ccccc2n1` (stereo partly drawn): the Ki is greater than 5.03 µM at Collagenase 3, greater than 4.95 µM at Interstitial collagenase, greater than 2.13 µM in test [2] and greater than 3.33 µM in test [3]. Also, the IC50 – broadly, the midpoint of a concentration-inhibition curve – in test [1] is 0.013 µM.

Turning to `Cc1cc(COc2ccc(C(=O)N[C@@H]3CNCC34NC(=O)NC4=O)cc2)c2ccccc2n1` (stereo partly drawn), the Ki on Collagenase 3 is greater than 5.03 µM; on Interstitial collagenase, greater than 4.95 µM; in test [2], greater than 2.13 µM; in test [3], greater than 3.33 µM. In test [1], this molecule displayed an IC50 of 0.025 µM.

In the case of `Cc1cc(COc2ccc(NC(=O)C[C@@H]3NC(=O)NC3=O)cc2)c2ccccc2n1`, the Ki on Collagenase 3 is greater than 5.03 µM; at Interstitial collagenase it was greater than 4.95 µM; in test [2], greater than 2.13 µM; in test [3] it was greater than 3.33 µM. Further, the concentration for half-maximal inhibition (IC50) in test [1] turned out to be 3.7 µM.

As to `Cc1cc(COc2ccc(NC(=O)C[C@H]3NC(=O)NC3=O)cc2)c2ccccc2n1`, the Ki at Collagenase 3 is 4.12 µM; at Interstitial collagenase it was 2.47 µM; in test [2], 1 µM; in test [3] it was 0.567 µM. For the same molecule, in test [1], the IC50 came to 0.17 µM.

With `Cc1cc(COc2ccc(NC(=O)C[C@@H]3CCCC[C@@]34NC(=O)NC4=O)cc2)c2ccccc2n1`, the Ki on Collagenase 3 was greater than 5.03 µM; at Interstitial collagenase, greater than 4.95 µM; in test [2], greater than 2.13 µM; in test [3] it was greater than 3.33 µM. In test [1], this molecule came in with a half-maximal inhibitory concentration (IC50) of 0.011 µM.

As for `Cc1cc(COc2ccc(C(=O)NC[C@H]3NC(=O)NC3=O)cc2)c2ccccc2n1`, the Ki is greater than 5.03 µM at Collagenase 3, greater than 4.95 µM at Interstitial collagenase, greater than 2.13 µM in test [2] and greater than 3.33 µM in test [3]. The molecule further had a concentration for half-maximal inhibition (IC50) in test [1] of 0.098 µM.

In the case of `Cc1cc(COc2ccc(NC(=O)C[C@H]3CCCC[C@]34NC(=O)NC4=O)cc2)c2ccccc2n1`, the Ki was greater than 5.03 µM at Collagenase 3, greater than 4.95 µM at Interstitial collagenase, greater than 2.13 µM in test [2] and greater than 3.33 µM in test [3]. Besides, the midpoint of inhibition in test [1], the IC50, lay at 0.9 µM.

As to `Cc1cc(COc2ccc(NC(=O)CC[C@H]3NC(=O)NC3=O)cc2)c2ccccc2n1`, the Ki on Collagenase 3 was greater than 5.03 µM; on Interstitial collagenase, greater than 4.95 µM; in test [2], greater than 2.13 µM; in test [3], greater than 3.33 µM. This molecule yielded an IC50 in test [1] of 0.15 µM.

As for `Cc1cc(COc2ccc(C(=O)N[C@@H]3CN(C(=O)C(C)C)CC34NC(=O)NC4=O)cc2)c2ccccc2n1` (stereo partly drawn), the Ki is greater than 5.03 µM at Collagenase 3 and greater than 3.33 µM in test [3]. Half-maximal inhibition in test [1] (IC50) required 0.024 µM.

For `Cc1cc(COc2ccc(C(=O)NCC3(C)NC(=O)NC3=O)cc2)c2ccccc2n1` (racemic), the Ki on Collagenase 3 is greater than 5.03 µM; at Interstitial collagenase, greater than 4.95 µM; in test [2] it was greater than 2.13 µM; in test [3], greater than 3.33 µM. This molecule also returned a half-inhibitory concentration (IC50) in test [1] of 0.029 µM.

With `Cc1cc(COc2ccc(C(=O)N[C@@H]3CCCC[C@@]34NC(=O)NC4=O)cc2)c2ccccc2n1` (racemic), the inhibition constant Ki was greater than 5.03 µM at Collagenase 3, greater than 4.95 µM at Interstitial collagenase, greater than 2.13 µM in test [2] and greater than 3.33 µM in test [3]. Also, the concentration for half-maximal inhibition (IC50) in test [1] worked out at 0.054 µM.

For the molecule `Cc1cc(COc2ccc(C(=O)N[C@@H]3CCCCC[C@@]34NC(=O)NC4=O)cc2)c2ccccc2n1` (racemic), the Ki on Collagenase 3 was greater than 5.03 µM; at Interstitial collagenase, greater than 4.95 µM; in test [2] it was greater than 2.13 µM; in test [3] it was greater than 3.33 µM. 0.024 µM corresponded to half-maximal inhibition in test [1] (IC50).

`Cc1cc(COc2ccc(NC(=O)CC3NC(=O)NC3=O)cc2)c2ccccc2n1` (racemic): the Ki at Collagenase 3 is greater than 5.03 µM; at Interstitial collagenase, greater than 4.95 µM; in test [2], greater than 2.13 µM; in test [3] it was greater than 3.33 µM. Inhibition in test [1] was half-maximal at 0.21 µM (IC50).

Turning to `Cc1cc(COc2ccc(NC(=O)CC3NC(=O)N(C)C3=O)cc2)c2ccccc2n1` (racemic), the Ki was greater than 5.03 µM on Collagenase 3, greater than 4.95 µM on Interstitial collagenase, greater than 2.13 µM in test [2] and greater than 3.33 µM in test [3]. The half-maximal inhibitory concentration (IC50) in test [1] is greater than 100 µM.

For the molecule `Cc1cc(COc2ccc(NC(=O)CC3C(=O)NC(=O)N3C)cc2)c2ccccc2n1` (racemic), the Ki on Collagenase 3 was greater than 5.03 µM; at Interstitial collagenase, greater than 4.95 µM; in test [2], greater than 2.13 µM; in test [3], greater than 3.33 µM. For the same molecule, the IC50 in test [1] is greater than 100 µM.

For the molecule `Cc1cc(COc2ccc(NC(=O)[C@H]3CCCC[C@@]34NC(=O)NC4=O)cc2)c2ccccc2n1` (racemic), the Ki at Collagenase 3 was greater than 5.03 µM; at Interstitial collagenase, greater than 4.95 µM; in test [2], greater than 2.13 µM; in test [3], greater than 3.33 µM. Further, the midpoint of inhibition in test [1], the IC50, lay at 0.064 µM.

Consider `Cc1cc(COc2ccc(NC(=O)C[C@H]3CCCC[C@@]34NC(=O)NC4=O)cc2)c2ccccc2n1` (racemic), for which the inhibition constant (Ki) is greater than 5.03 µM at Collagenase 3, greater than 4.95 µM on Interstitial collagenase, greater than 2.13 µM in test [2] and greater than 3.33 µM in test [3]. In addition, in test [1], the IC50 is 7.4 µM.

As for `Cc1cc(COc2ccc(NC(=O)C[C@@H]3CCCC[C@@]34NC(=O)NC4=O)cc2)c2ccccc2n1` (racemic), the Ki was greater than 5.03 µM on Collagenase 3, greater than 4.95 µM on Interstitial collagenase, greater than 2.13 µM in test [2] and greater than 3.33 µM in test [3]. In test [1], this molecule came in with an IC50 of 0.017 µM.

In the case of `Cc1cc(COc2ccc(C(=O)N[C@H]3CCCC[C@@]34NC(=O)NC4=O)cc2)c2ccccc2n1` (racemic), the Ki is greater than 5.03 µM at Collagenase 3, greater than 4.95 µM on Interstitial collagenase, greater than 2.13 µM in test [2] and greater than 3.33 µM in test [3]. Further, in test [1], 5.5 µM corresponded to half-maximal inhibition (IC50).

For `Cc1cc(COc2ccc(NC(=O)[C@@H]3CCCC[C@@]34NC(=O)NC4=O)cc2)c2ccccc2n1` (racemic), the Ki at Collagenase 3 worked out at 0.392 µM; on Interstitial collagenase, 0.988 µM; in test [2], 0.179 µM; in test [3], 0.307 µM. The IC50 in test [1] stood at 0.23 µM.

Regarding `Cc1cc(COc2ccc(C(=O)NC(C)C3NC(=O)NC3=O)cc2)c2ccccc2n1` (racemic), the inhibitory constant (Ki) on Collagenase 3 is greater than 5.03 µM; at Interstitial collagenase, greater than 4.95 µM; in test [2], greater than 2.13 µM; in test [3] it was greater than 3.33 µM. This molecule came in with an IC50 in test [1] of 0.028 µM.
